Source: ChEMBL document CHEMBL1130580, “Synthesis and biological activity of new bradykinin pseudopeptide B1 receptor agonists containing alkylic spacers” (Bioorg Med Chem Lett, 1997)
One block for each compound: values may come before it. Numbered stars: 1 amine (or outer) side, 2 acyl side, 3 side chain; on linkers, the order of the positions; unused ones are H or OH. Square brackets hold non-standard residues; d marks the D form. Peptide text beside a SMILES is read from it. ξ: configuration not given here. Oic(3aξ,7aξ) = O=C(O)[C@@H]1CC2CCCCC2N1; X2 = O=C([C@H]1c2ccccc2CCN1[*:1])[*:2]; X1 = O=C(CCCCCCCCCCCCN[*:1])[*:2]

Tests used:
B1 bradykinin receptor = molecular target: T1, B1 bradykinin receptor (Rattus norvegicus, UniProt P97583); assay: Compound was evaluated for agonist activity against B1 receptor in rat ileum longitudinal smooth muscle; assay type: functional, tissue-based
T1 sequence (P97583 whole entry): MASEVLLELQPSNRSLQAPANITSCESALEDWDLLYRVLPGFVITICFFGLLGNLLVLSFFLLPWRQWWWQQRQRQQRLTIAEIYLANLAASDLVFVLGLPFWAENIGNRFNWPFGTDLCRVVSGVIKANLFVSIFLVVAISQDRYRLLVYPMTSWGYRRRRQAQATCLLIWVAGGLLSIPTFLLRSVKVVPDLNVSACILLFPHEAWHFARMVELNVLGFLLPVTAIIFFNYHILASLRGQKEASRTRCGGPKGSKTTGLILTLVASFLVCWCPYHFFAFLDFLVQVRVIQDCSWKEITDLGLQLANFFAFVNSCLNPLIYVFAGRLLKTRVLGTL

B2 bradykinin receptor [1] = molecular target: T2, B2 bradykinin receptor (Cavia porcellus, UniProt O70526); assay: Functional antagonism against BK-induced contractions in the classical guinea pig ileum B2 binding assay; assay type: tissue-based; conditions: read-out: pA2 (converted)
T2 sequence (O70526 whole entry): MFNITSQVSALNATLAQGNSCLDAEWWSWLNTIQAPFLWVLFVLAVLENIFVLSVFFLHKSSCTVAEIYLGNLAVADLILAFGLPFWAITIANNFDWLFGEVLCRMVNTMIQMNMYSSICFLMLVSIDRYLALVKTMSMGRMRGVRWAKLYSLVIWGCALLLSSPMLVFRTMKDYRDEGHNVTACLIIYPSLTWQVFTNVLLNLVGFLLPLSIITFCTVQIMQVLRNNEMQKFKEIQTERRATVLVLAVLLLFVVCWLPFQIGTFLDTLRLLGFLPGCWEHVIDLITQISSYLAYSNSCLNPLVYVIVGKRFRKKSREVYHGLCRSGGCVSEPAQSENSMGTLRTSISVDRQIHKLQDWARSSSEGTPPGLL

B2 bradykinin receptor [2] = molecular target: T2, B2 bradykinin receptor; assay: Compound was evaluated for inhibitory activity against [3H]BK in the classical guinea pig ileum B2 binding assay; assay type: tissue-based
B2 bradykinin receptor [3] = molecular target: T3, B2 bradykinin receptor (Homo sapiens, UniProt P30411); assay: Compound was evaluated for inhibitory activity against [3H]BK in membrane preparations from a stable cell line that expresses the human B2 receptor
T3 sequence (P30411 whole entry): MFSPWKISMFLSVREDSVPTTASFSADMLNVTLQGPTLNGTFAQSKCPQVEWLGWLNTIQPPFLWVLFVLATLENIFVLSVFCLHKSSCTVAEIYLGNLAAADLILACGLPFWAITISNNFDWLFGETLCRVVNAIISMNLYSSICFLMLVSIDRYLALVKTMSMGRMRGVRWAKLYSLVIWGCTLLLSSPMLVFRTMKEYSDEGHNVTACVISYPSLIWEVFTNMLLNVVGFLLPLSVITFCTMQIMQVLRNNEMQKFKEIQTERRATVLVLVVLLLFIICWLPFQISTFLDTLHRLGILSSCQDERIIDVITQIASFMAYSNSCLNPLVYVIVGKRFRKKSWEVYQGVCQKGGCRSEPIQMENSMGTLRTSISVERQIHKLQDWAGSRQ

- EC50 (B1 bradykinin receptor): 85 nM
Structure (SMILES): NCCCC[C@H](N)C(=O)N[C@@H](CCCN=C(N)N)C(=O)N1CCC[C@H]1C(=O)N1CCC[C@H]1C(=O)NCC(=O)N[C@@H](Cc1ccccc1)C(=O)N[C@@H](CO)C(=O)N1CCC[C@H]1C(=O)N[C@@H](Cc1ccccc1)C(=O)O

- Kb (B2 bradykinin receptor [1]): 3160 nM
- Ki (B2 bradykinin receptor [2]): 360 nM
Structure (SMILES): N=C(N)NCCC[C@H](NC(=O)[C@H](N)CCCN=C(N)N)C(=O)NCCCCCCCCCCCC(=O)N[C@@H](CO)C(=O)N1CCc2ccccc2[C@@H]1C(=O)N1C2CCCCC2C[C@H]1C(=O)N[C@@H](CCCN=C(N)N)C(=O)O (stereo not given in full)

- EC50 (B1 bradykinin receptor): 980 nM
Structure (SMILES): NCCCC[C@H](N)C(=O)N[C@@H](CCCN=C(N)N)C(=O)NCCCCCCCCCCCCC(=O)N[C@@H](CO)C(=O)N1CCC[C@H]1C(=O)N[C@@H](Cc1ccccc1)C(=O)O (H-KR[X1]SPF-OH)

- Ki (B2 bradykinin receptor [3]): 44 nM
Structure (SMILES): NC(N)=NCCC[C@H](NC(=O)[C@@H]1CC2CCCCC2N1C(=O)[C@H]1c2ccccc2CCN1C(=O)[C@H](CO)NC(=O)CCCCCCCCCCCCNC(=O)[C@H](CCCN=C(N)N)NC(=O)[C@@H](N)CCCN=C(N)N)C(=O)O (stereo not given in full) (H-RR[X1]S[X2][Oic(3aξ,7aξ)]R-OH)
